Experimental data: PubChem BioAssay (NCI)
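Exposure lasted 48 hours, with cells grown in 96-well plates and compounds tested at five concentrations. GI50 marks 50% less growth. TGI denotes the concentration required for complete inhibition of growth.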

Legend:
Assay in all cases: growth of human tumour cells (NCI), 48 h
[1] = test system: HS 578T breast
[2] = test system: M14 melanoma
[3] = test system: MDA-MB-231 breast
[4] = test system: PC-3 prostate
[5] = test system: TK-10 renal
[6] = test system: HCT-15 colon
[7] = test system: MOLT-4 leukemia
[8] = test system: CAKI-1 renal
[9] = test system: CCRF-CEM leukemia
[10] = test system: NCI-H460 lung
[11] = test system: HOP-92 NSCLC
[12] = test system: OVCAR-4 ovarian
[13] = test system: MALME-3M melanoma
[14] = test system: RPMI-8226 leukemia
[15] = test system: OVCAR-3 ovarian
[16] = test system: KM12 colon
[17] = test system: OVCAR-5 ovarian
[18] = test system: SNB-75 CNS
[19] = test system: EKVX NSCLC
[20] = test system: UO-31 renal
[21] = test system: OVCAR-8 ovarian
[22] = test system: SK-OV-3 ovarian
[23] = test system: MCF7 breast
[24] = test system: HT29 colon
[25] = test system: IGROV1 ovarian
[26] = test system: HOP-62 NSCLC
[27] = test system: ACHN renal
[28] = test system: SK-MEL-2 melanoma
[29] = test system: MDA-MB-435
[30] = test system: SF-539 CNS
[31] = test system: 786-0 renal
[32] = test system: SK-MEL-28 melanoma
[33] = test system: A549 NSCLC
[34] = test system: HL-60(TB) leukemia
[35] = test system: SN12C renal
[36] = test system: NCI-H23 lung
[37] = test system: UACC-62 melanoma
[38] = test system: RXF 393 renal
[39] = test system: HCT-116 colon
[40] = test system: NCI-H226 lung
[41] = test system: A498 renal
[42] = test system: DU-145 prostate
[43] = test system: SF-295 CNS
[44] = test system: SR leukemia
[45] = test system: UACC-257 melanoma
[46] = test system: BT-549 breast
[47] = test system: SW-620 colon
[48] = test system: K-562 leukemia
[49] = test system: U251 CNS
[50] = test system: T-47D breast
[51] = test system: NCI-H522 lung
[52] = test system: SK-MEL-5 melanoma
[53] = test system: NCI/ADR-RES ovarian
[54] = test system: SNB-19 CNS
[55] = test system: HCC-2998 colon
[56] = test system: LOX IMVI melanoma
[57] = test system: SF-268 CNS

Compound: O=C(/C=C/c1ccco1)Nc1ncc(Cc2cc(Cl)ccc2Cl)s1
- GI50 [1]: 42.7 nM
- TGI [1]: > 100000 nM
- GI50 [2]: 37.3 nM
- TGI [2]: > 100000 nM
- GI50 [3]: 157 nM
- TGI [3]: > 100000 nM
- GI50 [4]: 42.1 nM
- TGI [4]: > 100000 nM
- GI50 [5]: 6880 nM
- TGI [5]: > 100000 nM
- GI50 [6]: 46.3 nM
- TGI [6]: > 100000 nM
- GI50 [7]: 61 nM
- TGI [7]: > 100000 nM
- GI50 [8]: 50 nM
- TGI [8]: > 100000 nM
- GI50 [9]: 38.5 nM
- TGI [9]: > 100000 nM
- GI50 [10]: 39.2 nM
- TGI [10]: > 100000 nM
- GI50 [11]: 6910 nM
- TGI [11]: > 100000 nM
- GI50 [12]: 1030 nM
- TGI [12]: > 100000 nM
- GI50 [13]: 76.9 nM
- TGI [13]: > 100000 nM
- GI50 [14]: 63.4 nM
- TGI [14]: > 100000 nM
- GI50 [15]: 29.4 nM
- TGI [15]: 122 nM
- GI50 [16]: 41.9 nM
- TGI [16]: > 100000 nM
- GI50 [17]: 257 nM
- TGI [17]: > 100000 nM
- GI50 [18]: 26.1 nM
- TGI [18]: 433 nM
- GI50 [19]: 161 nM
- TGI [19]: > 100000 nM
- GI50 [20]: 162 nM
- TGI [20]: > 100000 nM
- GI50 [21]: 120 nM
- TGI [21]: > 100000 nM
- GI50 [22]: 53.8 nM
- TGI [22]: > 100000 nM
- GI50 [23]: 35.9 nM
- TGI [23]: > 100000 nM
- GI50 [24]: 38 nM
- TGI [24]: > 100000 nM
- GI50 [25]: 80.7 nM
- TGI [25]: > 100000 nM
- GI50 [26]: 64.5 nM
- TGI [26]: > 76500 nM
- GI50 [27]: 66.4 nM
- TGI [27]: > 100000 nM
- GI50 [28]: 148 nM
- TGI [28]: > 100000 nM
- GI50 [29]: 19.1 nM
- TGI [29]: 44.9 nM
- GI50 [30]: 37.3 nM
- TGI [30]: 191 nM
- GI50 [31]: 69.9 nM
- TGI [31]: > 100000 nM
- GI50 [32]: 2130 nM
- TGI [32]: > 100000 nM
- GI50 [33]: 108 nM
- TGI [33]: > 100000 nM
- GI50 [34]: 48.2 nM
- TGI [34]: 159 nM
- GI50 [35]: 117 nM
- TGI [35]: > 100000 nM
- GI50 [36]: 156 nM
- TGI [36]: > 100000 nM
- GI50 [37]: 48.7 nM
- TGI [37]: > 100000 nM
- GI50 [38]: 32.8 nM
- TGI [38]: 303 nM
- GI50 [39]: 50.9 nM
- TGI [39]: > 100000 nM
- GI50 [40]: 581 nM
- TGI [40]: > 100000 nM
- GI50 [41]: 24.5 nM
- TGI [41]: 3960 nM
- GI50 [42]: 55 nM
- TGI [42]: > 41600 nM
- GI50 [43]: 45 nM
- TGI [43]: > 100000 nM
- GI50 [44]: 38.5 nM
- TGI [44]: > 100000 nM
- GI50 [45]: > 100000 nM
- TGI [45]: > 100000 nM
- GI50 [46]: 189 nM
- GI50 [47]: 41.7 nM
- TGI [47]: > 100000 nM
- GI50 [48]: 34.4 nM
- TGI [48]: > 100000 nM
- GI50 [49]: 42.6 nM
- TGI [49]: > 100000 nM
- GI50 [50]: 255 nM
- TGI [50]: > 100000 nM
- GI50 [51]: 36.4 nM
- GI50 [52]: 44.1 nM
- TGI [52]: > 64800 nM
- GI50 [53]: 32.7 nM
- TGI [53]: 370 nM
- GI50 [54]: 58.5 nM
- TGI [54]: > 100000 nM
- GI50 [55]: 208 nM
- TGI [55]: > 100000 nM
- GI50 [56]: 76.2 nM
- TGI [56]: > 100000 nM
- GI50 [57]: 102 nM
- TGI [57]: > 100000 nM
